In BindingDB's records for doi:10.7270/Q2QJ7FTF (Burnham Center For Chemical Genomics, 2011):

Molecular target: T1, C-C chemokine receptor type 6 (Homo sapiens, UniProt P51684)
T1 sequence (P51684 whole entry): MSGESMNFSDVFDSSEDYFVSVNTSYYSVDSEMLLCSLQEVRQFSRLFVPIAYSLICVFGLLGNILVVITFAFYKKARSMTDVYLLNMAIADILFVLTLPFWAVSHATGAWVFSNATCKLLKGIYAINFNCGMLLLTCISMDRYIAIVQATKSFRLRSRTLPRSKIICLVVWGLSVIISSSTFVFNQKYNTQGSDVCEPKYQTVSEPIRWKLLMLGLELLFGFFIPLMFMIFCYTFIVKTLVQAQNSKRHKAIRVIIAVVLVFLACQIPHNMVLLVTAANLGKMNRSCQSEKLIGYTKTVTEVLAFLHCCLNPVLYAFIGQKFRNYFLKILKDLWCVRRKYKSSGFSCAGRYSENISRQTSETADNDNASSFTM
Test: CCR6 receptor antagonists, SAR follow-up, cell-based, luminescent beta-arrestin readout (AID 540334)

Compound	IC50
OCC12C=CC(O1)c1c2c(O)n(-c2ccccc2-c2ccccc2)c1O (configuration not stated) [7-(hydroxymethyl)-2-(2-phenylphenyl)-4,7a-dihydro-3aH-octahydro-1H-4,7-epoxyisoindole-1,3-dione]	> 66.6 µM
CN1C(=O)C(C2CC(c3ccc(Cl)cc3)N=N2)C(=O)N(C)C1=O (configuration not stated) [SMR000439471]	5.84 µM
